From US11109590B2 (priority 2017, dated 2021) come the findings set out here.

Test [1] has as its system P. aeruginosa (PA01) in biofilm. Description: Antimicrobial efficacy in relation to bacteria in biofilm (24 hours old). To be noted: for Log10 reduction factor: biofilm, starting number > 8 log10 cfu/cm^2. The class given is cell-based.
In test [2] the test system is Legionella pneumophilia (ATCC 33152). The class given is cell-based. The conditions noted are these: pH 8.0, 0.005% yeast extract.

Like-named read-outs stand apart in the source and are kept apart here. Some results are limits rather than exact numbers.

With `OO` [H2O2, hydrogen peroxide], the Log10 reduction factor is reported as 0.84 Log10 in test [1] (1.7% solution, 5 min exposure); 1.62 Log10 in test [1] (1.7% solution, 15 min exposure); 1.95 Log10 in test [1] (1.7% solution, 30 min exposure); 2.53 Log10 in test [1] (1.7% solution, 60 min exposure); above 8.00 Log10 in test [1] (17% aqueous solution, 5 min exposure); above 8.00 Log10 in test [1] (17% aqueous solution, 15 min exposure). For the same compound, the Log10 reduction factor in test [1] (17% aqueous solution, 30 min exposure) is recorded as above 8.00 Log10; in test [1] (17% aqueous solution, 60 min exposure) it was above 8.00 Log10; in test [2] (7.50% aqueous solution, 15 min exposure) it was 2.24 Log10; in test [2] (7.50% aqueous solution, 30 min exposure) it was 3.44 Log10; in test [2] (7.50% aqueous solution, 60 min exposure), 4.25 Log10; in test [2] (7.50% aqueous solution, 120 min exposure), 4.83 Log10. For the same compound, the “antimicrobial efficacy in biofilms (in words)” value in test [1] (1.7%, compared to 17% H2O2 and 100% PAM) is “significant loss of antimicrobial efficacy”. Also, the “antimicrobial efficacy in relation to biofilms (in words)” value in test [1] (17%) was “high and substantially equivalent”. The “antimicrobial effect in relation to the test organisms in biofilms 24 hours old (in words)” value in test [1] (17% solution, after just 5 minutes of exposure time) was “high antimicrobial effect”.
In the case of “polyoxyethylene (20) sorbitan monooleate [PSb 80]”, the Log10 reduction factor in test [2] (aqueous 1% solution, 15 min exposure) stood at 0.06 Log10; in test [2] (aqueous 1% solution, 30 min exposure), 0.09 Log10; in test [2] (aqueous 1% solution, 60 min exposure) it was 0.09 Log10; in test [2] (aqueous 1% solution, 120 min exposure), 0.11 Log10.
